{"source": "ChEMBL document CHEMBL4507263", "about": "“Data for DCP probe BAY-474” (2021)", "key": {"[1]": {"target": "Mitogen-activated protein kinase 9 (Homo sapiens) (UniProt P45984)", "conditions": "Compound concentration 1000.0 nM"}, "[2]": {"target": "Mitogen-activated protein kinase kinase kinase 3 (Homo sapiens) (UniProt Q99759)", "conditions": "Compound concentration 1000.0 nM"}, "[3]": {"target": "Receptor tyrosine-protein kinase erbB-4 (Homo sapiens) (UniProt Q15303)", "conditions": "Compound concentration 1000.0 nM"}, "[4]": {"target": "Rho-associated protein kinase 2 (Homo sapiens) (UniProt O75116)", "conditions": "Compound concentration 1000.0 nM"}, "[5]": {"target": "Protein kinase C epsilon type (Homo sapiens) (UniProt Q02156)", "conditions": "Compound concentration 1000.0 nM"}, "[6]": {"target": "Serine/threonine-protein kinase SIK3 (Homo sapiens) (UniProt Q9Y2K2)", "conditions": "Compound concentration 1000.0 nM"}, "[7]": {"target": "Calcium/calmodulin-dependent protein kinase type IV (Homo sapiens) (UniProt Q16566)", "conditions": "Compound concentration 1000.0 nM"}, "[8]": {"target": "Serine/threonine-protein kinase MRCK alpha (Homo sapiens) (UniProt Q5VT25)", "sequence (Q5VT25 whole entry)": "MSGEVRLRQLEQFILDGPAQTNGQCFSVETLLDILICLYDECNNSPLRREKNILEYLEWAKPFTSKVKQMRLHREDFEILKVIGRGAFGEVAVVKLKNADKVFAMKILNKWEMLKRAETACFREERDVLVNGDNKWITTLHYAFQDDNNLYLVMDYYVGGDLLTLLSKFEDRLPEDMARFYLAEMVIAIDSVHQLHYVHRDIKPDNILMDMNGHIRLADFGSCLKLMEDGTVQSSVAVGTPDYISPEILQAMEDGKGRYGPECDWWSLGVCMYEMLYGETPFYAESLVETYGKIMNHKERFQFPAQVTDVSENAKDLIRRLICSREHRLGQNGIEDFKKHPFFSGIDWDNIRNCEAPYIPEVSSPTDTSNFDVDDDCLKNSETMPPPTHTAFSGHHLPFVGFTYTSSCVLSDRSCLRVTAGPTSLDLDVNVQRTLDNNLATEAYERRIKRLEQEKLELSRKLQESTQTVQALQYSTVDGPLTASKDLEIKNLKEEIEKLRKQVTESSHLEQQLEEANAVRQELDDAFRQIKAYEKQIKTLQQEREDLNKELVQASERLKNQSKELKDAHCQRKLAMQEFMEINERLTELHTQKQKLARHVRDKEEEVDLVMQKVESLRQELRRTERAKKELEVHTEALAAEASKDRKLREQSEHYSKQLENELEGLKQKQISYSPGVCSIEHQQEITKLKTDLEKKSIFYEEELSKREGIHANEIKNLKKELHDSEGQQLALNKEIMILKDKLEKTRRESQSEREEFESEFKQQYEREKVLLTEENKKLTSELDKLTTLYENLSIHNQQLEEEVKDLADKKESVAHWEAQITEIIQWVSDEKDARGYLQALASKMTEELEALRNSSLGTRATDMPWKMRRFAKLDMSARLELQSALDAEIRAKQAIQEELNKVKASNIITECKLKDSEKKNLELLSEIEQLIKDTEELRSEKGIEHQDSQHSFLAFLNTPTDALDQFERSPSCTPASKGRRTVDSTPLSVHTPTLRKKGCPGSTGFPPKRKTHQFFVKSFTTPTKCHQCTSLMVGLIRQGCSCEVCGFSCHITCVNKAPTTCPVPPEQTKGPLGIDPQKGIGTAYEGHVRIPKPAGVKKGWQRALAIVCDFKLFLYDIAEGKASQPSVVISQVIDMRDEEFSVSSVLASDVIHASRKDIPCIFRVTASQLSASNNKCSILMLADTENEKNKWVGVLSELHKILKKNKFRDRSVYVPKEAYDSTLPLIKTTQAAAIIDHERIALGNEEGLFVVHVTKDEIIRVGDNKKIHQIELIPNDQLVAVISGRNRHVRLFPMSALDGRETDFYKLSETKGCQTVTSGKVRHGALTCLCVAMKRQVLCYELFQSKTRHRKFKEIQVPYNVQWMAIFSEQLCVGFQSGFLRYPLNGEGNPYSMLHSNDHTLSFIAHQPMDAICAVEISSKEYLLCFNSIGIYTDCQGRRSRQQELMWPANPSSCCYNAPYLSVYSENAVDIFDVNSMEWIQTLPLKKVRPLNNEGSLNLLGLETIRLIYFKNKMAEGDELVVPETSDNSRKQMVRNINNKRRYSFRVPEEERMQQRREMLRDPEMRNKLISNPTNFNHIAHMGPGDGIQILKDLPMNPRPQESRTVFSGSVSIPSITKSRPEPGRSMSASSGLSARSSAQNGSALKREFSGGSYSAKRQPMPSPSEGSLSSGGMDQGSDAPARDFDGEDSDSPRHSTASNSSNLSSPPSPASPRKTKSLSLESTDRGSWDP", "conditions": "Compound concentration 1000.0 nM"}, "[9]": {"target": "SRSF protein kinase 1 (Homo sapiens) (UniProt Q96SB4)", "conditions": "Compound concentration 1000.0 nM"}, "[10]": {"test_system": "Receptor-type tyrosine-protein kinase FLT3 (Homo sapiens), P36888 [D835V]", "conditions": "Compound concentration 1000.0 nM"}, "[11]": {"test_system": "Mast/stem cell growth factor receptor Kit (Homo sapiens), P10721 [A829P]", "sequence (P10721 whole entry A829P)": "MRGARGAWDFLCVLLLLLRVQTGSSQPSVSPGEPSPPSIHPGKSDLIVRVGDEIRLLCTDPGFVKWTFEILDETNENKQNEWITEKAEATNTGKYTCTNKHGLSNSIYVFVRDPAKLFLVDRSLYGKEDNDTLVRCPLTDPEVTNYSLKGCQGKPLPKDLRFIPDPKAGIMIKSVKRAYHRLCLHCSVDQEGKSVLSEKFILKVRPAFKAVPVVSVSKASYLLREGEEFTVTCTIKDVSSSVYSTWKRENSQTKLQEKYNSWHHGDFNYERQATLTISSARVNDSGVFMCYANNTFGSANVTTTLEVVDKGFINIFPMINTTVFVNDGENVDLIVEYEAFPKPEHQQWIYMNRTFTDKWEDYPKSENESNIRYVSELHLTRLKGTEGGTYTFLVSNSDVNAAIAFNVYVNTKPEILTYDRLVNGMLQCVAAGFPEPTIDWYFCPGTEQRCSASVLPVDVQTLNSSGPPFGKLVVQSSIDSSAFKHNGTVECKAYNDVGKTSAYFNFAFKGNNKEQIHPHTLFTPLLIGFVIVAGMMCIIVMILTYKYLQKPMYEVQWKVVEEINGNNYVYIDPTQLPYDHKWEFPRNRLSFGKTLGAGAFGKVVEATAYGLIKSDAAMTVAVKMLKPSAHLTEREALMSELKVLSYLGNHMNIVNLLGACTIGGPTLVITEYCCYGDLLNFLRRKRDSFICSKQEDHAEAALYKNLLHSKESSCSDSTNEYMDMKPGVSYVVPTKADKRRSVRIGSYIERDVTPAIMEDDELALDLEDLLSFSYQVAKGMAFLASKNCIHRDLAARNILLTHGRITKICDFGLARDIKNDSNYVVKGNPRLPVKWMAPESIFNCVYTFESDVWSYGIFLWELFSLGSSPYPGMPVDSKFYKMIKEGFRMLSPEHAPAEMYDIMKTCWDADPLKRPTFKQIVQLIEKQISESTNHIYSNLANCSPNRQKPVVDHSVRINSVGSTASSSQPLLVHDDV", "conditions": "Compound concentration 1000.0 nM"}, "[12]": {"target": "Ephrin type-B receptor 6 (Homo sapiens) (UniProt O15197)", "conditions": "Compound concentration 1000.0 nM"}, "[13]": {"target": "Phosphatidylinositol 3-kinase catalytic subunit type 3 (Homo sapiens) (UniProt Q8NEB9)", "conditions": "Compound concentration 1000.0 nM"}, "[14]": {"test_system": "Receptor-type tyrosine-protein kinase FLT3 (Homo sapiens), P36888 [K663Q]", "conditions": "Compound concentration 1000.0 nM"}, "[15]": {"target": "Insulin receptor (Homo sapiens) (UniProt P06213)", "conditions": "Compound concentration 1000.0 nM"}, "[16]": {"target": "Cyclin-dependent kinase 19 (Homo sapiens) (UniProt Q9BWU1)", "conditions": "Compound concentration 1000.0 nM"}, "[17]": {"test_system": "Tyrosine-protein kinase ABL1 (Homo sapiens), P00519 [T315I]", "conditions": "Compound concentration 1000.0 nM"}, "[18]": {"target": "NUAK family SNF1-like kinase 2 (Homo sapiens) (UniProt Q9H093)", "conditions": "Compound concentration 1000.0 nM"}, "[19]": {"target": "Ephrin type-B receptor 3 (Homo sapiens) (UniProt P54753)", "conditions": "Compound concentration 1000.0 nM"}, "[20]": {"target": "Interleukin-1 receptor-associated kinase 1 (Homo sapiens) (UniProt P51617)", "sequence (P51617 whole entry, looked up)": "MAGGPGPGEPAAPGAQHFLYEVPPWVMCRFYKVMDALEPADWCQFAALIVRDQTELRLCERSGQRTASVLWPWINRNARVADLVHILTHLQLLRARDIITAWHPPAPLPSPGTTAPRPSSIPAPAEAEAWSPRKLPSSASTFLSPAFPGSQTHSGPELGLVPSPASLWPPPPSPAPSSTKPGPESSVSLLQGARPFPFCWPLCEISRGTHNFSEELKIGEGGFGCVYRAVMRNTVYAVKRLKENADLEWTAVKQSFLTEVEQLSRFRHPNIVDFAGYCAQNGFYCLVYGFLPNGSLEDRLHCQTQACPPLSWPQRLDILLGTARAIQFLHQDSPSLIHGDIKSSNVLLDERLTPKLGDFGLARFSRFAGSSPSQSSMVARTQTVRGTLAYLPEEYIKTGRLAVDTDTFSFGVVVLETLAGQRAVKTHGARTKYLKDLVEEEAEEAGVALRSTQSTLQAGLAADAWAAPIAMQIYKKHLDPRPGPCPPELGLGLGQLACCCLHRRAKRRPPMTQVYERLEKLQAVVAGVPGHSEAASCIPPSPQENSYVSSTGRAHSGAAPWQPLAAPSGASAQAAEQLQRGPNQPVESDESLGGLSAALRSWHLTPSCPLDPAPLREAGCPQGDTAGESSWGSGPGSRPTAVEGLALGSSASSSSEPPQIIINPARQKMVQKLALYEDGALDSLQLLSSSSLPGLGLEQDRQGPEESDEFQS", "conditions": "Compound concentration 1000.0 nM"}, "[21]": {"target": "Dual specificity mitogen-activated protein kinase kinase 5 (Homo sapiens) (UniProt Q13163)", "conditions": "Compound concentration 1000.0 nM"}, "[22]": {"target": "Cyclin-dependent kinase 8 (Homo sapiens) (UniProt P49336)", "conditions": "Compound concentration 1000.0 nM"}, "[23]": {"target": "Glycogen synthase kinase-3 alpha (Homo sapiens) (UniProt P49840)", "conditions": "Compound concentration 1000.0 nM"}, "[24]": {"target": "LIM domain kinase 1 (Homo sapiens) (UniProt P53667)", "conditions": "Compound concentration 1000.0 nM"}, "[25]": {"target": "Tyrosine-protein kinase Fer (Homo sapiens) (UniProt P16591)", "conditions": "Compound concentration 1000.0 nM"}, "[26]": {"target": "Serine/threonine-protein kinase pim-1 (Homo sapiens) (UniProt P11309)", "conditions": "Compound concentration 1000.0 nM"}, "[27]": {"target": "Tyrosine-protein kinase ABL1 (Homo sapiens) (UniProt P00519)", "conditions": "Compound concentration 1000.0 nM"}, "[28]": {"target": "Receptor-interacting serine/threonine-protein kinase 4 (Homo sapiens) (UniProt P57078)", "conditions": "Compound concentration 1000.0 nM"}, "[29]": {"target": "Dual specificity protein kinase CLK1 (Homo sapiens) (UniProt P49759)", "conditions": "Compound concentration 1000.0 nM"}, "[30]": {"target": "Bone morphogenetic protein receptor type-1B (Homo sapiens) (UniProt O00238)", "sequence (O00238 whole entry)": "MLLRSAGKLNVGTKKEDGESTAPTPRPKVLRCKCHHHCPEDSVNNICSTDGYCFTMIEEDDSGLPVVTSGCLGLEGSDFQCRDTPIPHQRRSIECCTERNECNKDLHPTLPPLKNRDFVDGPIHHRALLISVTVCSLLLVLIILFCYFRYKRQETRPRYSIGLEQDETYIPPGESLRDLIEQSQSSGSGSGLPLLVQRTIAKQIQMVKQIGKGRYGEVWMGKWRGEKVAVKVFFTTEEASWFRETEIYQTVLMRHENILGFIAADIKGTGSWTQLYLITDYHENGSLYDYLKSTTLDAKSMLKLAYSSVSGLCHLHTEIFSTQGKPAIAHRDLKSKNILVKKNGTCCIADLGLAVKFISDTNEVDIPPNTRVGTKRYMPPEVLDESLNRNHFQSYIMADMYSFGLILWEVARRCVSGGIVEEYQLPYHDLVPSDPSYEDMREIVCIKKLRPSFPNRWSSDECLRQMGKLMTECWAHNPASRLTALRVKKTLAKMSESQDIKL", "conditions": "Compound concentration 1000.0 nM"}, "[31]": {"target": "Aurora kinase A (Homo sapiens) (UniProt O14965)", "conditions": "Compound concentration 1000.0 nM"}, "[32]": {"target": "Tyrosine-protein kinase Yes (Homo sapiens) (UniProt P07947)", "conditions": "Compound concentration 1000.0 nM"}, "[33]": {"test_system": "Epidermal growth factor receptor (Homo sapiens), P00533 [UNDEFINED MUTATION]", "conditions": "Compound concentration 1000.0 nM"}, "[34]": {"target": "Myotonin-protein kinase (Homo sapiens) (UniProt Q09013)", "sequence (Q09013 whole entry)": "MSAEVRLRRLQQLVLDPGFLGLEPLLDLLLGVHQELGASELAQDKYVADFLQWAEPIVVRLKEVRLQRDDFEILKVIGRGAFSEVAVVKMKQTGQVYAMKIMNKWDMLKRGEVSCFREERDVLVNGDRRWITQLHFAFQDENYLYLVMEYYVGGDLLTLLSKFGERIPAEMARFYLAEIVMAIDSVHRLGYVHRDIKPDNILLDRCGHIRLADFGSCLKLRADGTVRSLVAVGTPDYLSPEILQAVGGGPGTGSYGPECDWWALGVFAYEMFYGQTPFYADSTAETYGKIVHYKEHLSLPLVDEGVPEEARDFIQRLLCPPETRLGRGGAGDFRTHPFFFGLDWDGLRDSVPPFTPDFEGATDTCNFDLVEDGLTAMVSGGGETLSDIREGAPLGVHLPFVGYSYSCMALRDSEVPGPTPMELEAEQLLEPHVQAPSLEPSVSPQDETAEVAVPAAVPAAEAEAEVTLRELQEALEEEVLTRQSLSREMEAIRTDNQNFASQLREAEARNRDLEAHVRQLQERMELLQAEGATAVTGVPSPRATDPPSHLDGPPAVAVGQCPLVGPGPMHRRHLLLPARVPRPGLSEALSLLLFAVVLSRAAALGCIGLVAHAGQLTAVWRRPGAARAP", "experiment": "DMPK (h) Millipore kinase activity assay", "conditions": "Compound concentration 1.0 uM"}, "[35]": {"target": "Muscarinic acetylcholine receptor M3 (Homo sapiens) (UniProt P20309)", "conditions": "Compound concentration 10.0 uM"}, "[36]": {"target": "Serine/threonine-protein kinase 10 (Homo sapiens) (UniProt O94804)", "experiment": "LOK (h) Millipore kinase activity assay", "conditions": "Compound concentration 1.0 uM"}, "[37]": {"target": "PAS domain-containing serine/threonine-protein kinase (Homo sapiens) (UniProt Q96RG2)", "experiment": "PASK (h) Millipore kinase activity assay", "conditions": "Compound concentration 1.0 uM"}, "[38]": {"test_system": "MKN-45", "experiment": "Cell proliferation with […] cell line", "assay_type": "functional", "conditions": "Homo sapiens"}, "[39]": {"target": "Kappa-type opioid receptor (Homo sapiens) (UniProt P41145)", "conditions": "Compound concentration 10.0 uM"}, "[40]": {"target": "Sigma non-opioid intracellular receptor 1 (Homo sapiens) (UniProt Q99720)", "experiment": "Sigma 1 Eurofins-Panlabs radioligand binding assay", "parameters": "ligand concentration 8 nM", "conditions": "Compound concentration 10.0 uM"}, "[41]": {"target": "Serine/threonine-protein kinase MARK1 (Homo sapiens) (UniProt Q9P0L2)", "experiment": "MARK1 (h) Millipore kinase activity assay", "conditions": "Compound concentration 1.0 uM"}, "[42]": {"target": "Histamine H1 receptor (Homo sapiens) (UniProt P35367)", "conditions": "Compound concentration 10.0 uM"}, "[43]": {"target": "D(3) dopamine receptor (Homo sapiens) (UniProt P35462)", "conditions": "Compound concentration 10.0 uM"}, "[44]": {"target": "Homeodomain-interacting protein kinase 3 (Homo sapiens) (UniProt Q9H422)", "experiment": "HIPK3 (h) Millipore kinase activity assay", "conditions": "Compound concentration 1.0 uM"}, "[45]": {"target": "Calcium/calmodulin-dependent protein kinase type II subunit delta (Homo sapiens) (UniProt Q13557)", "sequence (Q13557 whole entry)": "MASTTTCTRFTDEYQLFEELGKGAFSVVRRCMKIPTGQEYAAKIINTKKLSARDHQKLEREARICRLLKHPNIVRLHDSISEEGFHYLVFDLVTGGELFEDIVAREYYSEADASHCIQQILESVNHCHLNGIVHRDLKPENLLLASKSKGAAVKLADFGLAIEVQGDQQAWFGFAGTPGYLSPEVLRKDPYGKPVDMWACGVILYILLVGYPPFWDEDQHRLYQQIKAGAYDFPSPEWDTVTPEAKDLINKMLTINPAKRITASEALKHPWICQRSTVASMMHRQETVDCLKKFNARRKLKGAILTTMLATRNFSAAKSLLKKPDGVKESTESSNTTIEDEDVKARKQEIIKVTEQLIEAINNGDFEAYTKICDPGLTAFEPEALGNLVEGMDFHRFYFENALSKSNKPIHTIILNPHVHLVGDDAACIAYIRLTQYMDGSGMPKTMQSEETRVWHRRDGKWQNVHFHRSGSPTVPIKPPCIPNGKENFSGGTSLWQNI", "experiment": "CaMKIIdelta (h) Millipore kinase activity assay", "conditions": "Compound concentration 1.0 uM"}, "[46]": {"species": "Rattus norvegicus", "experiment": "Inhibition of Rolipram at 10 µM in the Eurofins-Panlabs radioligand binding assay (Eurofins_assay_268811)", "assay_type": "protein assay", "parameters": "ligand concentration 1.8 nM", "conditions": "Compound concentration 10.0 uM"}}, "note": "The source made the active and inactive calls. The calls are words filed in the database; no cut-off is given here.", "data": [{"molecule": "CC1=C(C#N)[C@@H](c2ccc3[nH]nc(C)c3c2)C(C#N)=C(c2ccc(Cl)cc2)N1", "note": "[BAY-827]", "values": [{"measurement": "residual activity", "setting": "[1]", "result": 89.5, "unit": "%"}, {"measurement": "residual activity", "setting": "[2]", "result": 100, "unit": "%"}, {"measurement": "residual activity", "setting": "[3]", "result": 100, "unit": "%"}, {"measurement": "residual activity", "setting": "[4]", "result": 91.9, "unit": "%"}, {"measurement": "residual activity", "setting": "[5]", "result": 100, "unit": "%"}, {"measurement": "residual activity", "setting": "[6]", "result": 100, "unit": "%"}, {"measurement": "residual activity", "setting": "[7]", "result": 31.8, "unit": "%"}, {"measurement": "residual activity", "setting": "[8]", "result": 82.2, "unit": "%"}, {"measurement": "residual activity", "setting": "[9]", "result": 100, "unit": "%"}, {"measurement": "residual activity", "setting": "[10]", "result": 89.7, "unit": "%"}, {"measurement": "residual activity", "setting": "[11]", "result": 100, "unit": "%"}, {"measurement": "residual activity", "setting": "[12]", "result": 100, "unit": "%"}, {"measurement": "residual activity", "setting": "[13]", "result": 100, "unit": "%"}, {"measurement": "residual activity", "setting": "[14]", "result": 100, "unit": "%"}, {"measurement": "residual activity", "setting": "[15]", "result": 100, "unit": "%"}, {"measurement": "residual activity", "setting": "[16]", "result": 66.8, "unit": "%"}, {"measurement": "residual activity", "setting": "[17]", "result": 88.1, "unit": "%"}, {"measurement": "residual activity", "setting": "[18]", "result": 100, "unit": "%"}, {"measurement": "residual activity", "setting": "[19]", "result": 100, "unit": "%"}, {"measurement": "residual activity", "setting": "[20]", "result": 100, "unit": "%"}, {"measurement": "residual activity", "setting": "[21]", "result": 49.9, "unit": "%"}, {"measurement": "residual activity", "setting": "[22]", "result": 93.2, "unit": "%"}, {"measurement": "residual activity", "setting": "[23]", "result": 100, "unit": "%"}, {"measurement": "residual activity", "setting": "[24]", "result": 100, "unit": "%"}, {"measurement": "residual activity", "setting": "[25]", "result": 97.9, "unit": "%"}, {"measurement": "residual activity", "setting": "[26]", "result": 100, "unit": "%"}, {"measurement": "residual activity", "setting": "[27]", "result": 82.9, "unit": "%"}, {"measurement": "residual activity", "setting": "[28]", "result": 71.8, "unit": "%"}, {"measurement": "residual activity", "setting": "[29]", "result": 100, "unit": "%"}, {"measurement": "residual activity", "setting": "[30]", "result": 100, "unit": "%"}, {"measurement": "residual activity", "setting": "[31]", "result": 100, "unit": "%"}, {"measurement": "residual activity", "setting": "[32]", "result": 100, "unit": "%"}, {"measurement": "residual activity", "setting": "[33]", "result": 75.1, "unit": "%"}]}, {"molecule": "CC1=C(C#N)C(c2ccc3[nH]nc(C)c3c2)C(C#N)=C(C)N1", "note": "[BAY-474]", "values": [{"measurement": "inhibition", "setting": "[34]", "result": 3, "unit": "%"}, {"measurement": "inhibition", "setting": "[35]", "result": 2, "unit": "%"}, {"measurement": "inhibition", "setting": "[36]", "result": 26, "unit": "%"}, {"measurement": "inhibition", "setting": "[37]", "result": 19, "unit": "%"}, {"measurement": "IC90", "setting": "[38]", "result": "24 nM (active)"}, {"measurement": "inhibition", "setting": "[39]", "result": 7, "unit": "%"}, {"measurement": "inhibition", "setting": "[40]", "result": 15, "unit": "%"}, {"measurement": "inhibition", "setting": "[41]", "result": 11, "unit": "%"}, {"measurement": "inhibition", "setting": "[42]", "result": 17.7, "unit": "%"}, {"measurement": "inhibition", "setting": "[43]", "result": 12, "unit": "%"}, {"measurement": "inhibition", "setting": "[44]", "result": -4, "unit": "%"}, {"measurement": "inhibition", "setting": "[45]", "result": 3, "unit": "%"}, {"measurement": "inhibition", "setting": "[46]", "result": 10, "unit": "%"}]}]}
